Assay results as given in patent US9260408B2, “Dihydroquinoline-2-one derivatives” (Hoffmann-La Roche Inc., priority 2011, dated 2016).
Counter-ions that a name gives are not always drawn.

Columns and labels:
human CYP11B1 = target: T1, human CYP11B1 (Homo sapiens, UniProt P15538); assay: G-402 cellular enzyme assay, human CYP11B1 (cortisol release, HTRF); assay type: cell-based; conditions: G-402 cells expressing human CYP11B1; 1 μM Deoxycortisol
T1 construct: expressed in transfected cells
T1 sequence (P15538 25-503): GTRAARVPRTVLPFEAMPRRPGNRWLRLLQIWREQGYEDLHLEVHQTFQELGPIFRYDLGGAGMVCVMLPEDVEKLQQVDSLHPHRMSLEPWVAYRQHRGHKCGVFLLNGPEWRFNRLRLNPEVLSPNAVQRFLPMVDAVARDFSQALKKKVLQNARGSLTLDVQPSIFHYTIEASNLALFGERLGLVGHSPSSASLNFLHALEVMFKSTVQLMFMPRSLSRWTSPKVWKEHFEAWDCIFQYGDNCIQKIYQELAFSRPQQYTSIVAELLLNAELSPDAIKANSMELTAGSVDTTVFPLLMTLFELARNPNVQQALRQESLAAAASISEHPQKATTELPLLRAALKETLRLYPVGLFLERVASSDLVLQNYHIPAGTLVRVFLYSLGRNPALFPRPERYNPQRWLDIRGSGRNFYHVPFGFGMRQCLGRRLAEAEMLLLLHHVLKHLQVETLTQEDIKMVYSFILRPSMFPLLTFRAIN
Description: (§1) Herein we identified the use of the G-402 cell line as a host cell to ectopically express (transiently or stably) enzymes of the CYP11 family. Specifically we developed stable G-402 cells expressing ectopically human CYP11B1, human CYP11B2, human CYP11A1, cynomolgus CYP11B1 or cynomolgus CYP11B2 enzyme activity. Importantly the identified cell line G-402 expresses co-factors (adrenodoxin and adrenodoxin reductase) important for the activity of the CYP11 family and no relevant enzyme activity of the CYP11 family (in comparison to H295R cells) was detected in these cells. Therefore the G-402 cell line is uniquely suited as a host cell for the ectopic expression of enzymes from the CYP11 family.
(§2) G-402 cells can be obtained from ATCC(CRL-1440) and were originally derived from a renal leiomyoblastoma.
(§3) The expression plasmids contains the ORF for either human/cyno CYP11B1 or CYP11B2 under the control of a suitable promoter (CMV-promoter) and a suitable resistance marker (neomycin). Using standard techniques the expression plasmid is transfected into G-402 cells and these cells are then selected for expressing the given resistance markers. Individual cell-clones are then selected and assessed for displaying the desired enzymatic activity using 11-Deoxycorticosterone (Cyp11B2) or 11-Deoxycortisol (Cyp11B1) as a substrate.
(§4) G-402 cells expressing CYP11 constructs were established as described above and maintained in McCoy's 5a Medium Modified, ATCC Catalog No. 30-2007 containing 10% FCS and 400 μg/ml G418 (Geneticin) at 37° C. under an atmosphere of 5% CO2/95% air. Cellular enzyme assays were performed in DMEM/F12 medium containing 2.5% charcoal treated FCS and appropriate concentration of substrate (0.3-10 uM 11-Deoxycorticosterone, 11-Deoxycortisol or Corticosterone). For assaying enzymatic activity, cells were plated onto 96 well plates and incubated for 16 h. An aliquot of the supernatant is then transferred and analyzed for the concentration of the expected product (Aldosterone for CYP11B2; Cortisol for CYP11B1). The concentrations of these steroids can be determined using HTRF assays from CisBio analyzing either Aldosterone or Cortisol.
(§5) Inhibition of the release of produced steroids can be used as a measure of the respective enzyme inhibition by test compounds added during the cellular enzyme assay. The dose dependent inhibition of enzymatic activity by a compound is calculated by means of plotting added inhibitor concentrations (x-axes) vs. measured steroid/product level (y-axes). The inhibition is then calculated by fitting the following 4-parameter sigmoidal function (Morgan-Mercer-Flodin (MMF) model) to the raw data points using the least squares method:
(§6) [formula] wherein, A is the maximum y value, B is the EC50 factor determined using XLFit, C is the minimum y value and D is the slope value.
(§7) EC50 values for compounds claimed herein were tested with the G402-based assay system described. Cyp11B2 enzyme activity was tested in presence of 1 μM Deoxycorticosterone and variable amounts of inhibitors; Cyp11B1 enzyme activity was tested in presence of 1 μM Deoxycortisol and variable amounts of inhibitors.

human CYP11B2 = target: T2, human CYP11B2 (Homo sapiens, UniProt P19099); assay: G-402 cellular enzyme assay, human CYP11B2 (aldosterone release, HTRF); assay type: cell-based; conditions: G-402 cells expressing human CYP11B2; 1 μM Deoxycorticosterone
T2 construct: expressed in transfected cells
T2 sequence (P19099 25-503): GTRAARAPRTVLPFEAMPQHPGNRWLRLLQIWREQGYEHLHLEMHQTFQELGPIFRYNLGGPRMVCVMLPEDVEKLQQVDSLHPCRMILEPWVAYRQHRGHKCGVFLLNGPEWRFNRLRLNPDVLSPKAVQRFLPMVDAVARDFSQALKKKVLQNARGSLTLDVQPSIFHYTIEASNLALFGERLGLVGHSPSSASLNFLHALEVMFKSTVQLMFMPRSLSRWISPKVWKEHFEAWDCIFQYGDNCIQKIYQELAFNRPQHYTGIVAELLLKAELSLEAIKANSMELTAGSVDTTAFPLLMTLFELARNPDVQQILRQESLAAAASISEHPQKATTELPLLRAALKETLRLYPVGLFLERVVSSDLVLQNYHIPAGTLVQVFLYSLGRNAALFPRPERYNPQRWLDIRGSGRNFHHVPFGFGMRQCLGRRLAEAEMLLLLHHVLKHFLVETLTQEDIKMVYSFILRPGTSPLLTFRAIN
Description: as §1, §2, §3, §4, §5, §6, §7

Work on `CN1C(=O)CCc2cc(-c3cncc(CNC(=O)c4ccnnc4)c3)ccc21` [Example 89] yielded an EC50 (human CYP11B1) of 276 nM and an EC50 (human CYP11B2) of 14 nM.
Work on `CN1C(=O)CCc2cc(-c3cncc(O[C@H]4CCN(C(=O)OC(C)(C)C)C4)c3)c(F)cc21` [Example 52, (S)-3-[5-(7-fluoro-1-methyl-2-oxo-1,2,3,4-tetrahydro-quinolin-6-yl)-pyridin-3-yloxy]-pyrrolidine-1-carboxylic acid tert-butyl ester] yielded an EC50 (human CYP11B1) of 139 nM and an EC50 (human CYP11B2) of 30 nM.
`COc1ncc(C(=O)NCc2cncc(-c3ccc4c(c3)CCC(=O)N4C)c2)cn1` [Example 82] showed an EC50 (human CYP11B1) of 20 nM and an EC50 (human CYP11B2) of 8 nM.
In the case of `CCS(=O)(=O)N1CC(Oc2cncc(-c3ccc4c(c3)CCC(=O)N4C)c2)C1` [Example 170, 6-[5-(1-Ethanesulfonyl-azetidin-3-yloxy)-pyridin-3-yl]-1-methyl-3,4-dihydro-1H-quinolin-2-one], the EC50 (human CYP11B1) is reported as 699 nM and the EC50 (human CYP11B2) is reported as 15 nM.
`CN1C(=O)CCc2cc(-c3cncc(CNS(=O)(=O)c4cnn(C)c4)c3)ccc21` [Example 159, 1-Methyl-1H-pyrazole-4-sulfonic acid [5-(1-methyl-2-oxo-1,2,3,4-tetrahydro-quinolin-6-yl)-pyridin-3-ylmethyl]-amide] was tested, and the EC50 (human CYP11B1) was 7930 nM and the EC50 (human CYP11B2) was 180 nM.
Work on `CCS(=O)(=O)N1CC[C@H](Oc2cncc(-c3ccc4c(c3)CCC(=O)N4C)c2)C1` [Example 164, 6-[5-((S)-1-Ethanesulfonyl-pyrrolidin-3-yloxy)-pyridin-3-yl]-1-methyl-3,4-dihydro-1H-quinolin-2-one] yielded an EC50 (human CYP11B1) of 207 nM and an EC50 (human CYP11B2) of 9 nM.
For `CN1C(=O)CCc2cc(-c3cncc(C4(N[S@+]([O-])C(C)(C)C)COC4)c3)ccc21` [Example 54, (R)-2-Methyl-propane-2-sulfinic acid {3-[5-(1-methyl-2-oxo-1,2,3,4-tetrahydro-quinolin-6-yl)-pyridin-3-yl]-oxetan-3-yl}-amide], the EC50 (human CYP11B1) was 3850 nM.
Compound `CCS(=O)(=O)NCc1cncc(-c2ccc3c(n2)CCC(=O)N3C)c1` [Example 32, Ethanesulfonic acid [5-(5-methyl-6-oxo-5,6,7,8-tetrahydro-[1,5]naphthyridin-2-yl)-pyridin-3-ylmethyl]-amide] has an EC50 (human CYP11B1) greater than 10000 nM and an EC50 (human CYP11B2) of 1290 nM.
In the case of `CN1C(=O)CCc2cc(-c3cncc(C4(N)COC4)c3)ccc21` [Example 69, 6-[5-(3-Amino-oxetan-3-yl)-pyridin-3-yl]-1-methyl-3,4-dihydro-1H-quinolin-2-one hydrochloride], the EC50 (human CYP11B1) is reported as 3490 nM and the EC50 (human CYP11B2) is reported as 411 nM.
In the case of `COc1ccc(S(=O)(=O)NCc2cncc(-c3ccc4c(c3)CCC(=O)N4C)c2)cn1` [Example 153, 6-Methoxy-pyridine-3-sulfonic acid [5-(1-methyl-2-oxo-1,2,3,4-tetrahydro-quinolin-6-yl)-pyridin-3-ylmethyl]-amide], the EC50 (human CYP11B1) is reported as 11100 nM and the EC50 (human CYP11B2) is reported as 375 nM.
In the case of `CN1C(=O)CCc2cc(-c3cncc(CNC(=O)c4ncccc4Cl)c3)c(F)cc21` [Example 131, 3-Chloro-pyridine-2-carboxylic acid [5-(7-fluoro-1-methyl-2-oxo-1,2,3,4-tetrahydro-quinolin-6-yl)-pyridin-3-ylmethyl]-amide], the EC50 (human CYP11B1) is reported as 440 nM and the EC50 (human CYP11B2) is reported as 3 nM.
In the case of `CCS(=O)(=O)NCCOc1cncc(-c2cc3c(cc2F)N(C)C(=O)CC3)c1` [Example 243, Ethanesulfonic acid {2-[5-(7-fluoro-1-methyl-2-oxo-1,2,3,4-tetrahydro-quinolin-6-yl)-pyridin-3-yloxy]-ethyl}-amide], the EC50 (human CYP11B1) is reported as 26 nM and the EC50 (human CYP11B2) is reported as 1 nM.
With `CN1C(=O)CCc2cc(-c3cncc(N4CCCC4=O)c3)ccc21` [Example 14] the EC50 (human CYP11B1) was 1570 nM and the EC50 (human CYP11B2) was 308 nM.
`CCS(=O)(=O)NCCOc1cncc(-c2ccc3c(c2)CCC(=O)N3C)c1` [Example 151, ethanesulfonic acid {2-[5-(1-methyl-2-oxo-1,2,3,4-tetrahydro-quinolin-6-yl)-pyridin-3-yloxy]-ethyl}-amide] gave an EC50 (human CYP11B1) of 90 nM and an EC50 (human CYP11B2) of 5 nM.
Compound `CCC(=O)NC(C)c1cncc(-c2ccc3c(c2)CCC(=O)N3C)c1C` (single isomer, unassigned) [Example 266, N-{(R or S)-1-[4-Methyl-5-(1-methyl-2-oxo-1,2,3,4-tetrahydro-quinolin-6-yl)-pyridin-3-yl]-ethyl}-propionamide] has an EC50 (human CYP11B1) of 623 nM and an EC50 (human CYP11B2) of 54 nM.
`CCS(=O)(=O)NCc1cncc(-c2cc(F)c3c(ccc(=O)n3C)c2)c1` [Example 263, Ethanesulfonic acid [5-(8-fluoro-1-methyl-2-oxo-1,2-dihydro-quinolin-6-yl)-pyridin-3-ylmethyl]-amide] gave an EC50 (human CYP11B2) of 3100 nM.
For `CCS(=O)(=O)N(C)CCOc1cncc(-c2cc3c(cc2F)N(C)C(=O)CC3)c1` [Example 248, Ethanesulfonic acid {2-[5-(7-fluoro-1-methyl-2-oxo-1,2,3,4-tetrahydro-quinolin-6-yl)-pyridin-3-yloxy]-ethyl}-methyl-amide], the EC50 (human CYP11B1) was 7 nM.
`CCS(=O)(=O)NC(c1cncc(-c2ccc3c(c2)CCC(=O)N3C)c1)C(C)C` (racemic) [Example 176, (rac)-Ethanesulfonic acid {2-methyl-1-[5-(1-methyl-2-oxo-1,2,3,4-tetrahydro-quinolin-6-yl)-pyridin-3-yl]-propyl}-amide] gave an EC50 (human CYP11B2) of 128 nM.
`Cc1cc(Cl)cnc1C(=O)NCc1cncc(-c2ccc3c(c2)CCC(=O)N3C)c1` [Example 120] showed an EC50 (human CYP11B1) of 8 nM.
With `CN1C(=O)CCc2cc(-c3cncc(C4CCN(C(=O)OC(C)(C)C)CC4)c3)ccc21` [Example 260, 5-(1-Methyl-2-oxo-1,2,3,4-tetrahydro-quinolin-6-yl)-3′,4′,5′,6′-tetrahydro-2′H-[3,4′]bipyridinyl-1′-carboxylic acid tert-butyl ester] the EC50 (human CYP11B1) was 1 nM.
In the case of `CN1C(=O)CCc2cc(-c3cncc(O[C@H]4CCNC4)c3)ccc21` [Example 60, 1-methyl-6-[5-((S)-pyrrolidin-3-yloxy)-pyridin-3-yl]-3,4-dihydro-1H-quinolin-2-one hydrochloride], the EC50 (human CYP11B2) is reported as 685 nM.
For `COc1cc(C(=O)N2CC3(C2)CN(c2cncc(-c4ccc5c(c4)CCC(=O)N5C)n2)C3)on1` [Example 74, 6-{6-[6-(3-Methoxy-isoxazole-5-carbonyl)-2,6-diaza-spiro[3.3]hept-2-yl]-pyrazin-2-yl}-1-methyl-3,4-dihydro-1H-quinolin-2-one], the EC50 (human CYP11B2) was 286 nM.
With `CN1C(=O)CCc2cc(-c3cncc(OC[C@@H]4CCCN4)c3)ccc21` [Example 66, 1-Methyl-6-[5-((S)-1-pyrrolidin-2-ylmethoxy)-pyridin-3-yl]-3,4-dihydro-1H-quinolin-2-one hydrochloride] the EC50 (human CYP11B2) was 710 nM.
